In article PMC8500670, “A selective WDR5 degrader inhibits acute myeloid leukemia in patient-derived mouse models” (Science translational medicine, 2021):
Read-outs that look alike come from different tables or passages of the source.

Experiments:
Test in all cases: biochemical
CHK1(h) = target: T1, CHK1(h) (Homo sapiens, UniProt O14757); design: kinase selectivity panel, activity as per cent of control, single concentration in duplicate; conditions: read-out: % of control remaining
T1 construct: gene CHEK1
Procedure: (§1) We next assessed selectivity of MS67 against 22 protein methyltransferases (table S2) and a broad panel of common drug targets including 45 kinases (table S3) and 44 G protein–coupled receptors (GPCR), ion channels, and transporters (table S4). […] We subsequently determined that MS67 had moderate binding affinity (Ki = 1.0 ± 0.8 μM) to Sigma 2 receptor (fig. S10).

FGFR3 = FGFR3 (Homo sapiens, UniProt P22607); design: kinase selectivity panel, single concentration, duplicate
Procedure: as §1

MAPK2 = target: T2, MAPK2 (Homo sapiens, UniProt P28482); design: kinase selectivity panel, single concentration, duplicate
T2 construct: gene MAPK1
Procedure: as §1

Mnk2 = target: T3, Mnk2 (Homo sapiens, UniProt Q9HBH9); design: kinase selectivity panel, single concentration, duplicate
T3 construct: gene MKNK2
Procedure: as §1

PAK4 = PAK4 (Homo sapiens, UniProt O96013); design: kinase selectivity panel, single concentration, duplicate
Procedure: as §1

SAPK2a = target: T4, SAPK2a (Homo sapiens, UniProt Q16539); design: kinase selectivity panel, single concentration, duplicate
T4 construct: gene MAPK14
Procedure: as §1

EGFR = EGFR (Homo sapiens, UniProt P00533); design: kinase selectivity panel, single concentration, duplicate
Procedure: as §1

JNK1α1 = target: T5, JNK1α1 (Homo sapiens, UniProt P45983); design: kinase selectivity panel, single concentration, duplicate
T5 construct: gene MAPK8; isoform alpha1
Procedure: as §1

MARK1 = MARK1 (Homo sapiens, UniProt Q9P0L2); design: kinase selectivity panel, single concentration, duplicate
Procedure: as §1

Aurora-A = target: T6, Aurora-A (Homo sapiens, UniProt O14965); design: kinase selectivity panel, single concentration, duplicate
T6 construct: gene AURKA
Procedure: as §1

IRAK4 = IRAK4 (Homo sapiens, UniProt Q9NWZ3); design: kinase selectivity panel, single concentration, duplicate
Procedure: as §1

EphB4 = EphB4 (Homo sapiens, UniProt P54760); design: kinase selectivity panel, single concentration, duplicate
Procedure: as §1

ROCK-I = target: T7, ROCK-I (Homo sapiens, UniProt Q13464); design: kinase selectivity panel, single concentration, duplicate
T7 construct: gene ROCK1
Procedure: as §1

JAK3 = JAK3 (Homo sapiens, UniProt P52333); design: kinase selectivity panel, single concentration, duplicate
Procedure: as §1

Abl = target: T8, Abl (Homo sapiens, UniProt P00519); design: kinase selectivity panel, single concentration, duplicate
T8 construct: gene ABL1
Procedure: as §1

TAO2 = target: T9, TAO2 (Homo sapiens, UniProt Q9UL54); design: kinase selectivity panel, single concentration, duplicate
T9 construct: gene TAOK2
Procedure: as §1

PKCβII = target: T10, PKCβII (Homo sapiens, UniProt P05771); design: kinase selectivity panel, single concentration, duplicate
T10 construct: gene PRKCB; isoform beta II
Procedure: as §1

CaMKIIα = target: T11, CaMKIIα (Homo sapiens, UniProt Q9UQM7); design: kinase selectivity panel, single concentration, duplicate
T11 construct: gene CAMK2A
Procedure: as §1

NEK2 = NEK2 (Homo sapiens, UniProt P51955); design: kinase selectivity panel, single concentration, duplicate
Procedure: as §1

PKBα = target: T12, PKBα (Homo sapiens, UniProt P31749); design: kinase selectivity panel, single concentration, duplicate
T12 construct: gene AKT1
Procedure: as §1

GSK3β = target: T13, GSK3β (Homo sapiens, UniProt P49841); design: kinase selectivity panel, single concentration, duplicate
T13 construct: gene GSK3B
Procedure: as §1

SGK = target: T14, SGK (Homo sapiens, UniProt O00141); design: kinase selectivity panel, single concentration, duplicate
T14 construct: gene SGK1
Procedure: as §1

TRKA = target: T15, TRKA (Homo sapiens, UniProt P04629); design: kinase selectivity panel, single concentration, duplicate
T15 construct: gene NTRK1
Procedure: as §1

PRMT5/MEP50 Complex = PRMT5/MEP50 Complex (Homo sapiens, UniProt O14744); design: complex; protein methyltransferase inhibition panel, single concentration, duplicate
Procedure: as §1

EZH2 Complex = EZH2 Complex (Homo sapiens, UniProt Q15910); design: complex; protein methyltransferase inhibition panel, single concentration, duplicate
Procedure: as §1

EZH1 Complex = EZH1 Complex (Homo sapiens, UniProt Q92800); design: complex; protein methyltransferase inhibition panel, single concentration, duplicate
Procedure: as §1

SET1b Complex = SET1b Complex (Homo sapiens, UniProt Q9UPS6); design: gene SETD1B; Complex; protein methyltransferase selectivity panel, enzyme activity relative to DMSO controls, single concentration in duplicate; conditions: Substrate:=Core Histone
Procedure: as §1

Sequence of SET1b Complex (Q15291 whole entry): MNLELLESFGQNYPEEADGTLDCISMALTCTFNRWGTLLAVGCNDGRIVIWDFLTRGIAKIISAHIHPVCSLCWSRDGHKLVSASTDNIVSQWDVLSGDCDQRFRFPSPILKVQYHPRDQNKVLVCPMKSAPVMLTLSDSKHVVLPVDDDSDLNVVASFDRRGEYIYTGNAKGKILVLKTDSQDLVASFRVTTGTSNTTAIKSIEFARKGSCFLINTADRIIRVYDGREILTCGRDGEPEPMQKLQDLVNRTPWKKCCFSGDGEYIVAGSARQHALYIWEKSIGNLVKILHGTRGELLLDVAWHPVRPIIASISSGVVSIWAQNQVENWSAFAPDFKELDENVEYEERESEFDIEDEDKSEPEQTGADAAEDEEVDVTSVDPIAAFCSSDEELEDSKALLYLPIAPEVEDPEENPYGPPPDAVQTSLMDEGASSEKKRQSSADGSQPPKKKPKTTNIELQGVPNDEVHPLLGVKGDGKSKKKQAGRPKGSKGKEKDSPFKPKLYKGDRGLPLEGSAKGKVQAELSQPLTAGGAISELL
Sequence of SET1b Complex (Q9UPS6 whole entry): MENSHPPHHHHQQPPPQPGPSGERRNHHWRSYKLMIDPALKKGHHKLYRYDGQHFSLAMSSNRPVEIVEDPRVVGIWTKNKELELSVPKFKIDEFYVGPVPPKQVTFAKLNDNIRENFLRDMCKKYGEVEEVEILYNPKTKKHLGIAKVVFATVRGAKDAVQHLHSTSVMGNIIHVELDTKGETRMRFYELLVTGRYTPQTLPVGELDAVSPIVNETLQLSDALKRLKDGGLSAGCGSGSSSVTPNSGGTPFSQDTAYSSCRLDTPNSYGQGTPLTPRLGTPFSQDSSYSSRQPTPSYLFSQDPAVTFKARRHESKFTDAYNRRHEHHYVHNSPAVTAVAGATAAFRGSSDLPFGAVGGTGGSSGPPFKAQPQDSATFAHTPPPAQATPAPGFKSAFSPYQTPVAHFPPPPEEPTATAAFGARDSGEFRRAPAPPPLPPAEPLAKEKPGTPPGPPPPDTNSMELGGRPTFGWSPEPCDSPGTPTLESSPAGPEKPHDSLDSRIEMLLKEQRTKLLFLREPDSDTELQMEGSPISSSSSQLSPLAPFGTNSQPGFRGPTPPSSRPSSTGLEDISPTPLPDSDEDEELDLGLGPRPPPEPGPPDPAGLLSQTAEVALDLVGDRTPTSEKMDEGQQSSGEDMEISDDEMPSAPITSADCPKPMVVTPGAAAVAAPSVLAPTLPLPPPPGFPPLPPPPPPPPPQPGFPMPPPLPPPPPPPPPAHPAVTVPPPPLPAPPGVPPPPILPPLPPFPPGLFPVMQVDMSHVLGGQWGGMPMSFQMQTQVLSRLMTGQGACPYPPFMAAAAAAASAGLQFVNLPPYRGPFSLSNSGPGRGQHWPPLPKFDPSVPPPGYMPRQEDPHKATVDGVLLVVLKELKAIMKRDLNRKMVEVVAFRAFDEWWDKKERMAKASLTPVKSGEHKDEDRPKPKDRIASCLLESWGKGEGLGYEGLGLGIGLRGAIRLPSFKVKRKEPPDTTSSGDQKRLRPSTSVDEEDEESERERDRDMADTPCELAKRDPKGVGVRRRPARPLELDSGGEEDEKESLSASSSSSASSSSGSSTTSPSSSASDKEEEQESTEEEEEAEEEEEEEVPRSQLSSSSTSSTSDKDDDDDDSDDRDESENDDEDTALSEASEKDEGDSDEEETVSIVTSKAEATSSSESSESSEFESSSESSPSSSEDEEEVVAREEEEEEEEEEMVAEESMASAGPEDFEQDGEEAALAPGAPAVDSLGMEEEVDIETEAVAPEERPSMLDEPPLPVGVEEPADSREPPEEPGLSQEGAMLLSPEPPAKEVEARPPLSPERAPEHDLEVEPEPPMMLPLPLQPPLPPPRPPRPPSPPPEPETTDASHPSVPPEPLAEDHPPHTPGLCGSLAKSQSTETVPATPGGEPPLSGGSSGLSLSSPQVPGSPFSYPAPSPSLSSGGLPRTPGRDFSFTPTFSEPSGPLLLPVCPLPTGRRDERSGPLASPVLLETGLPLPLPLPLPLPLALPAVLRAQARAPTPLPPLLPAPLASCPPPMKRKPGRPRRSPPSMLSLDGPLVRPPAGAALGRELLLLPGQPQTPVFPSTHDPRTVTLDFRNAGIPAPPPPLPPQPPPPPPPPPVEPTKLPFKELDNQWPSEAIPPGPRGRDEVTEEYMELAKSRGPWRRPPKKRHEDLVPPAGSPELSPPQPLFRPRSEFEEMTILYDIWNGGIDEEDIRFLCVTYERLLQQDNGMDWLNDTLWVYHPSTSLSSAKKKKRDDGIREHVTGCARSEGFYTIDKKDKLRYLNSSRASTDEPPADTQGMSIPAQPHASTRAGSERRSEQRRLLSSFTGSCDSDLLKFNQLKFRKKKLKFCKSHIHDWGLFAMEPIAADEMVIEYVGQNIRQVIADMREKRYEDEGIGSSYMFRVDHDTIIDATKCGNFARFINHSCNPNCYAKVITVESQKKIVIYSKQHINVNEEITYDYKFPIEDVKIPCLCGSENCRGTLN
Sequence of SET1b Complex (Q9C005 whole entry, further chain): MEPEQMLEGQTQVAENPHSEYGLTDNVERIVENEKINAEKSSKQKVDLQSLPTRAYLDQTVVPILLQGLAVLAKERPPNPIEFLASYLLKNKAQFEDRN
Sequence of SET1b Complex (Q9UBL3 whole entry, further chain): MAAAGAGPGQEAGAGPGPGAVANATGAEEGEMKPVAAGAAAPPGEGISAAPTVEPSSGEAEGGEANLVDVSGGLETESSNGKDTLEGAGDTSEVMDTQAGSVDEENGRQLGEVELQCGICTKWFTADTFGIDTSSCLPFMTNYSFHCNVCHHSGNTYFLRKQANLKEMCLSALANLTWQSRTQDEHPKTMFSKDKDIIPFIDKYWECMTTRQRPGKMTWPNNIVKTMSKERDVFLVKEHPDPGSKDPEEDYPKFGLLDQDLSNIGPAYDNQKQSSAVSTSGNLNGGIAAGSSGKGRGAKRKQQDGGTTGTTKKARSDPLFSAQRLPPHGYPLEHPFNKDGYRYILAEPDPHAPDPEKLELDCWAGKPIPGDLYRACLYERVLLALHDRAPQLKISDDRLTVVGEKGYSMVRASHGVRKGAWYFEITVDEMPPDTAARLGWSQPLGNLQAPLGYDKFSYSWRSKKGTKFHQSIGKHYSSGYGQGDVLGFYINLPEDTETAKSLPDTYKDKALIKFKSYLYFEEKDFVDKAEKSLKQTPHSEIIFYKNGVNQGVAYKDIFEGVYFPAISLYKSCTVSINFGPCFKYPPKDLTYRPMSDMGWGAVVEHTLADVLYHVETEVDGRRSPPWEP
T5 sequence (P45983 whole entry, canonical isoform): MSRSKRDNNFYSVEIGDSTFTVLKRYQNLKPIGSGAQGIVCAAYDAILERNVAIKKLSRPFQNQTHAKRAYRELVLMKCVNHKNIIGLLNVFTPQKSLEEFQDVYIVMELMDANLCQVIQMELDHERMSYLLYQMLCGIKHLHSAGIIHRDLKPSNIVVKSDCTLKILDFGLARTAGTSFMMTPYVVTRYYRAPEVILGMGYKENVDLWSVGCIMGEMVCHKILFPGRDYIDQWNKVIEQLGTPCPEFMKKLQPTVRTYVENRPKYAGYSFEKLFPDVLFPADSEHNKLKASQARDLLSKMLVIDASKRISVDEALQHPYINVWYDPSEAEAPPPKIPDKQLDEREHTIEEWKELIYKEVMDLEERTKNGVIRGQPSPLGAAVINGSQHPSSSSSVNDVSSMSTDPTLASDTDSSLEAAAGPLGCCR
Sequence of JAK3 (P52333 whole entry): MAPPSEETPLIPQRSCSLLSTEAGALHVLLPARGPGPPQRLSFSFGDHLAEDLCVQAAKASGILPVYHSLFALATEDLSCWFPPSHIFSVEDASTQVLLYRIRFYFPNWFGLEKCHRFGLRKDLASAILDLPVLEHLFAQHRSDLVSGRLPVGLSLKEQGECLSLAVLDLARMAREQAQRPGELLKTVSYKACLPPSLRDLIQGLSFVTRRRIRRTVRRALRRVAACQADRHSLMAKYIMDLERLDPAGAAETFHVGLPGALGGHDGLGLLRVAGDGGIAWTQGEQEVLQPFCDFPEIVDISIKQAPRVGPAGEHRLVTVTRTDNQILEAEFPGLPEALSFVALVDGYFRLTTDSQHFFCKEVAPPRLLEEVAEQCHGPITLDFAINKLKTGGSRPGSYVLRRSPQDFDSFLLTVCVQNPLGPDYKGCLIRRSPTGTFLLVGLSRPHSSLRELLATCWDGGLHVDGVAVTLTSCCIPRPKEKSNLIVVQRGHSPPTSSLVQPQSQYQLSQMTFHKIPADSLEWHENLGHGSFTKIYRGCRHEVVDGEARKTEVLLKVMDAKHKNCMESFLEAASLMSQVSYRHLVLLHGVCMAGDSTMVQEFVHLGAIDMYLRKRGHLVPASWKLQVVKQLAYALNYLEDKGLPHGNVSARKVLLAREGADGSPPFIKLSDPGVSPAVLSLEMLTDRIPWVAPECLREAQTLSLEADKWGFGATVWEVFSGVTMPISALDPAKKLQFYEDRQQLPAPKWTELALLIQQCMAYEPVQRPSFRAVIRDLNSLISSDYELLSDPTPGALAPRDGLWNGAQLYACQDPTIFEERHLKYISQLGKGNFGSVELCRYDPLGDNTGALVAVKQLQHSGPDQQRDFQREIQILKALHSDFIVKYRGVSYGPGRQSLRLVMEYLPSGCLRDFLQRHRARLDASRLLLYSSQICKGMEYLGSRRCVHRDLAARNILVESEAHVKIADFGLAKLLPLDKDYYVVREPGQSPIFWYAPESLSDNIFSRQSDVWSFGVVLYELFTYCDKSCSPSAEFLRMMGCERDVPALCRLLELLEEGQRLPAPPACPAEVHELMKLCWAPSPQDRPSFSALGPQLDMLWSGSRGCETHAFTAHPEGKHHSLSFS

## Cc1ncsc1-c1ccc([C@H](C)NC(=O)[C@@H]2C[C@@H](O)CN2C(=O)[C@@H](NC(=O)CNC(=O)c2ccc(F)c(-c3ccc(N4C[C@@H](C)N(C)[C@@H](C)C4)c(NC(=O)c4c[nH]c(=O)cc4C(F)(F)F)c3)c2)C(C)(C)C)cc1 [MS67]
CHK1(h)
  remaining activity at 1 µM: 78%
FGFR3
  inhibition at 1 µM: < 10%
MAPK2
  inhibition at 1 µM: < 10%
Mnk2
  inhibition at 1 µM: < 10%
PAK4
  inhibition at 1 µM: < 10%
SAPK2a
  inhibition at 1 µM: < 10%
EGFR
  inhibition at 1 µM: < 10%
JNK1α1
  inhibition at 1 µM: < 10%
MARK1
  inhibition at 1 µM: < 10%
Aurora-A
  inhibition at 1 µM: < 10%
IRAK4
  inhibition at 1 µM: < 10%
EphB4
  inhibition at 1 µM: < 10%
ROCK-I
  inhibition at 1 µM: < 10%
JAK3
  inhibition at 1 µM: < 10%
Abl
  inhibition at 1 µM: < 10%
TAO2
  inhibition at 1 µM: < 10%
PKCβII
  inhibition at 1 µM: < 10%
CaMKIIα
  inhibition at 1 µM: < 10%
NEK2
  inhibition at 1 µM: < 10%
PKBα
  inhibition at 1 µM: < 10%
GSK3β
  inhibition at 1 µM: < 10%
SGK
  inhibition at 1 µM: < 10%
TRKA
  inhibition at 1 µM: < 10%
PRMT5/MEP50 Complex
  inhibition at 10 µM: < 10%
EZH2 Complex
  inhibition at 10 µM: < 10%
EZH1 Complex
  inhibition at 10 µM: < 10%
SET1b Complex; read-out: Enzyme % Activity (relative to DMSO controls) / MS67 / 10 / Data 1:
  remaining activity at 10 µM: 94.9%
SET1b Complex; read-out: Enzyme % Activity (relative to DMSO controls) / MS67 / 10 / Data 2:
  remaining activity at 10 µM: 92.1%
